The subject of experiment [1] is gastric mucosa. Briefly: In-vivo gastric healing, macroscopic impairment of the gastric mucosa. The settings on record: oral, dextran derivative and dextran T40 50 μg/kg, prostaglandin E2 10 μg/kg. More on the design: species or system Sprague-Dawley rats; key: 0: Normal mucosa.; +: Small superficial hemorrhagic striae.; ++: Short and broad superficial hemorrhagic striae.; +++: Long and broad superficial hemorrhagic striae.; ++++: Perforations. The protocol:
The animals employed are 12-week-old male Sprague-Dawley rats weighing from 200 to 250 g. Three batches of animals are used, with each consisting of 4 animals:
the first batch is treated with a dextran derivative of the general formula DMCaBbSuc in which a=0.75, b=0.25 and c=0.15, at the rate of 50 μg/kg,
the second batch serves as the control, with the animals being treated with a native dextran T40 (Pharmacia Fine Chemical; weight average molecular mass Mw: 37 500 g/mol; Mw/Mn: 1.7, with Mn representing the number average mass), at the rate of 50 μg/kg,
This batch therefore corresponds to a positive control.
The dextran derivative, the native dextran and the prostaglandin E2 are dissolved in physiological saline and administered orally to the animals.
The animals are sacrificed at different stages of healing, namely on D2, D4, D7 and D14, with the healing process being considered on days from the date on which the gastric irritation is induced. The gastric mucosa is recovered with a view to carrying out two studies:
quantification of the impairment of the gastric mucosa,
Table V represents a compilation of the results of the macroscopic study of the inflammatory reaction in the gastric mucosa, with the study being effected in accordance with the following scale: […]

For experiment [2], the system named is right eye. Put plainly: In-vivo ocular healing after sodium hydroxide burn, histological studies. More on the design: species or system New Zealand white rabbits. Particulars: 100 μl three times daily; FGF-2 0.1 ng and/or dextran derivative 50 μg/ml.
Experimental: 20 New Zealand white rabbits (10 males and 10 females) are used, with the rabbits being 1 year old and weighing from 2.5 to 3 kg; a 5.5 mm filter soaked in a 1N solution of sodium hydroxide was placed for 60 seconds on the right eye of these rabbits, which were then divided up into 4 groups of 5 animals each:
the first group is treated three times daily with 100 μl of a solution containing 0.1 ng of FGF-2 (Fibroblast Growth Factor-2);
the second group is treated three times daily with 100 μl of an isotonic solution containing 50 μg of a dextran derivative/ml of the general formula DMCaBbSuc in which a=0.75, b=0.31 and c=0.34;
the third group is treated three times daily with 100 μl of a solution containing 0.1 ng of FGF-2 and 50 μg of the above-mentioned dextran derivative/ml;
the fourth group (control group) is treated three times daily with 100 μl of a PBS buffer solution.
The speed of ocular healing in the four groups of animals is compared by means of histological studies carried out on days D1, D2, D4, D6 and D8.
Experiment [3] concerns complement system. Put plainly: In-vivo anticomplementary action, hemolytic CH50 assay on rat serum. More on the design: species or system Sprague-Dawley rats. Particulars: injection with Sephadex G25 20 μg and 50 μg of test substance. An excerpt: The anticomplementary action is studied by means of a hemolytic or CH50 assay, in accordance with a protocol in which the serum of the rats, withdrawn at different time intervals, is activated by sheep erythrocytes which are sensitized by rabbit antibodies directed against sheep red blood cells (EA). By definition, one CH50 unit corresponds to the concentration of complement proteins (contained in one milliliter of serum) which is capable of inducing the hemolysis of 50% of 2×10^7 activated EAs in a reaction medium where the volume, the temperature and the reaction time are kept constant. The number of hemolytic sites per cell is calculated.

For the compound `CCCCC[C@H](O)/C=C/[C@H]1[C@H](O)CC(=O)[C@@H]1C/C=C\CCCC(=O)O` [Prostaglandin E2, prostaglandin E2], the “Impairment of the gastric mucosa” value is reported as “++” in experiment [1] (D2), “+” in experiment [1] (D4), “+” in experiment [1] (D7) and 0 in experiment [1] (D14).

For FGF-2: Fibroblast Growth Factor-2, the “Duration of ocular healing (mean for each group of animals)” value in experiment [2] is listed as 5 days.

In the case of native dextran, the “Inhibition of the activation of the complement (CH50)” value in experiment [3] is listed as “did not have any effect”.
